# Assays:
# [1] = system: lettuce plants (Lactuca sativa L.) var. Sant'Anna; assay: Application of the iodine formulation by root application (hydroponic nutritive solution), iodine content by optical emission spectrometry; format: in vivo; settings: 36 μg I/L of nutritive solution, harvested after 15 days, lettuce aerial part
# Experimental: (§1) The seeds of the selected species were germinated within germination trays filled with a growth substrate composed by vernalized black peat and blond sphagnum peat (Agrofino Professional) and placed in a growth chamber.
# (§2) The germinated seedlings were grown until the 2nd real leaf stage. Later, the growth substrate portion wherein the roots were confined was extracted and a gentle washing was carried out in order to remove the whole substrate and thus obtain a free root seedling ready to be placed in hydroponics, for the test of root application. The plants were transplanted in 0.35 L pots for the foliar application test.
# The plants were grown in recipients containing 5 L of nutritive solution added with iodine salts obtained according to Example 1, or with the nutritive solution added with the formulation object of the patent. In both treatments, the applied iodine amount was the same: 36 μg I/L of nutritive solution. The plants were then grown in controlled conditions in a growth chamber: • 07.00-12.00: T 24° C., RH 60%, Light Int. 300 μmol/m^2/s; • 12.00-16.00: T 25° C., RH 60%, Light Int. 400 μmol/m^2/s; • 16.00-20.00: T 24° C., RH 60%, Light Int. 300 μmol/m^2/s; • 20.00-07.00: T 23° C., RH 60%, Light Int. 0 μmol/m^2/s.
# After 15 days the plants were harvested and the aerial part was weighted. Each plant was washed with deionized water and dried in oven at 105° C. overnight. […]
# [2] = system: lettuce plants (Lactuca sativa L.) var. Sant'Anna; assay: Application of the iodine formulation by foliar application (foliar spray), iodine content by optical emission spectrometry; format: in vivo; settings: foliar spray at transplantation and after 7 days, 30 μg iodine/plant, harvested after 15 days, lettuce aerial part
# Experimental: as §1, §2
# The plants were grown for 15 days in 0.35 L pots, containing universal topsoil based on vernalized black peat and blond sphagnum, in controlled conditions in a growth chamber: • 07.00-12.00: T 24° C., RH (Relative humidity) 60%, Light Int. 300 μmol/m^2/s; • 12.00-16.00: T 25° C., RH 60%, Light Int. 400 μmol/m^2/s; • 16.00-20.00: T 24° C., RH r 60%, Light Int. 300 μmol/m^2/s; • 20.00-07.00: T 23° C., RH 60%, Light Int. 0 μmol/m^2/s.
# The formulations (iodine salts and formulation object of the invention) were applied during transplantation and after 7 days, by foliar spray, delivering 5 ml of applicative solution according to Example 1 to each plant. In both treatments, the applied iodine amount was the same: 30 μg/plant. […]
structure (smiles),measurement,setting,value
"[I-].[K+] [KI salt, potassium iodide]",iodine absorption efficiency,[1],46%
same,iodine content in the food,[1],55 μg/100 g fresh weight
same,iodine absorption efficiency,[2],40%
same,iodine content in the food,[2],36 μg/100 g fresh weight
